Molecules are shown by their SMILES. Where two headings read alike, the source gives them in different places.

The conditions of series [1]: amide bond, 24-membered ring, THF/DMF.
The next series deals with fowl roundworms. The experiment in a line: Fowl Roundworm Eliminating Test. The format is in vivo. The settings on record: infected fowls, worms counted to day 7. Here is the method: Test 1 Fowl Roundworm Eliminating Test Fowls (three fowls per group), which had been artificially infected with fowl roundworms and whose infection therewith had been confirmed by scatoscopy, were used as experimental animals. Upon administration of each test substance, the test substance weighed in a dose (mg) accurately calculated on the basis of the body weight (kg) of each fowl was suspended in carboxymethylcellulose-containing water, and the resulting suspension was administered orally as a single dose unit using a stomach tube. After the administration, the worms eliminated from the fowls were counted daily. Seven days after the administration, the fowl was sacrificed and autopsied and the worms remaining in its intestinal tract were counted. The percent elimination was calculated in accordance with the following calculation equation: [formula] Each test substance is indicated by the corresponding substance code name shown above in Table 1.

Series [2] concerns Nippostrongylus brasillensis. Put plainly: Anthelmintic effects on a rat intestinal nematode (N. brasillensis-infected rats). The format is in vivo. The settings on record: male Wistar rats; for Number of remaining worms (average value ± SD): 10 mg/kg p.o. 7 days after inoculation, autopsy 10 days after inoculation; for % Effectiveness: 10 mg/kg p.o., compared with infected control group. The protocol: Anthelmintic effects of certain PF1022 derivatives on a rat intestinal nematode were tested in accordance with the following method.
Sixteen male Wistar rats were divided into eight groups (two rats per group), and about 2,000 larval worms of Nippostrongylus brasillensis were hypodermically inoculated per rat. Seven days after the inoculation, PF1022, PF1022E, PF1022-002, PF1022-003, PF1022-209, PF1022-218 and PF1022-219 were, as test substances, forcedly administered p.o. to the rats in the groups, respectively, in an amount of 10 mg/kg per rat. Upon administration, each test substance (8 mg) was dissolved in 0.2 ml of dimethyl sulfoxide and then, the resultant solution was diluted with distilled water to give a 2 ml suspension. Ten days after the inoculation,the rats were each subjected to autopsy and imaginal worms parasitic on the small intestines were counted.
As the test results, the average of remaining worms in each of the eight groups and the percent effectiveness of the test substance in each group as compared with that of the infected control group are shown in Table 4.

The next series has as its system Haemonchus contortus. Put plainly: In vivo Anthelmintic Activity Test on Nematodes in sheep (egg excretion). The settings on record: parasitic worms H, oral gelatin capsule. More on the design: key: "0" when there were no anthelmintic activities; "2" when excretion of parasite's eggs was observed; "3" when excretion of parasite's eggs stopped, that is, parasitic worms were removed completely. From the text: (§1) Test 2 In vivo Anthelmintic Activity Test on Nematodes To each sheep which had artificially been infected with Trichostrongylus colubriformis (hereinafter abbreviated as "T") and Haemonchus contortus (hereinafter abbreviated as […]), respectively, a test substance weighed in a dose accurately calculated from the weight […] of the sheep was orally administered in the form of a gelatin capsule. The number of parasite's eggs excreted with feces from the sheep was counted quantitatively before and after the administration so that the degree of anthelmintic effects was determined. The anthelmintic effects are evaluated by rated numeral 0, 1, 2 or 3. The anthelmintic effects are rated "0" when there were no anthelmintic activities, "2" when excretion of parasite's eggs was observed, and "3" when excretion of parasite's eggs stopped, that is, parasitic worms were removed completely.

Series [3] has as its system Trichostrongylus colubriformis. The series is described as above. Set-up: key: "0" when there were no anthelmintic activities; "2" when excretion of parasite's eggs was observed; "3" when excretion of parasite's eggs stopped, that is, parasitic worms were removed completely. The settings on record: parasitic worms T, oral gelatin capsule, 0.5 mg/kg.
From the text: as §1

Regarding `CC(C)C[C@H]1OC(=O)[C@H](CC(C)C)N(C)C(=O)[C@@H](C)OC(=O)[C@H](CC(C)C)N(C)C(=O)[C@@H](Cc2ccccc2)OC(=O)[C@H](CC(C)C)N(C)C(=O)[C@@H](C)OC(=O)[C@H](CC(C)C)N(C)C1=O` [PF1022-003, cyclo-(-L-MeLeu-D-Lac-L-MeLeu-D-PhLac-L-MeLeu-D-Lac-L-MeLeu-D-LEUA-)], in series [1] (from H-MeLeu-dLEUA-MeLeu-dLac-MeLeu-dPhLac-MeLeu-dLac-OH, EDCI.HCl/HOBt/NMM/KCl/CsCl, 3 steps), the ring closure, isolated yield worked out at 44%. In addition, the “% Elimination” value with fowl roundworms (single oral dose 10 mg/kg) is reported as 76%. Moreover, in series [2], the “Number of remaining worms (average value ± SD)” value was found to be 689 ± 48.1 and the “% Effectiveness” value worked out at 66.1%.

Compound `CC(C)C[C@H]1C(=O)O[C@H](C)C(=O)N(C)[C@@H](CC(C)C)C(=O)O[C@H](C)C(=O)N(C)[C@@H](CC(C)C)C(=O)O[C@H](C)C(=O)N(C)[C@@H](CC(C)C)C(=O)O[C@H](C)C(=O)N1C` [cyclo-(L-MeLeu-D-Lac-)4] showed a ring closure, isolated yield in series [1] (from H-MeLeu-dLac-MeLeu-dLac-MeLeu-dLac-MeLeu-dLac-OH, EDCI.HCl/HOBt/NMM/KCl/CsCl, 1.0 mM, 3 steps) of 86%.

With `CC(C)CC1C(=O)OC(Cc2ccc(OCc3ccccc3)cc2)C(=O)N(C)C(CC(C)C)C(=O)OC(C)C(=O)N(C)C(CC(C)C)C(=O)OC(Cc2ccc(OCc3ccccc3)cc2)C(=O)N(C)C(CC(C)C)C(=O)OC(C)C(=O)N1C` [PF1022-201, cyclo-(L-MeLeu-D-Lac-L-MeLeu-D-TYRA(OBn))2], the Degree of effects in the series with Haemonchus contortus (0.1 mg/kg) stood at 1; in the series with Haemonchus contortus (0.25 mg/kg), 3.

For the compound `CC(C)C[C@H]1C(=O)O[C@H](Cc2ccccc2)C(=O)N(C)[C@@H](CC(C)C)C(=O)O[C@H](C)C(=O)N(C)[C@@H](CC(C)C)C(=O)O[C@H](Cc2ccccc2)C(=O)N(C)[C@@H](CC(C)C)C(=O)O[C@H](C)C(=O)N1C` [PF1022, Cyclo-(L-MeLeu-D-Lac-L-MeLeu-D-PhLac-L-MeLeu-D-Lac-L-MeLeu-D-PhLac), reference compound], the “% Elimination” value with fowl roundworms (single oral dose 0.5 mg/kg) is on record as 50-70%; with fowl roundworms (single oral dose 1.0 mg/kg), 60-86%; in the series on fowl roundworms (single oral dose 2.0 mg/kg) it was 100%. Also, the Degree of effects (in the series on Haemonchus contortus (0.05 mg/kg); in series [3]) was 3 each time. Moreover, the “Number of remaining worms (average value ± SD)” value in series [2] is 403 ± 32.5. In addition, the “% Effectiveness” value is given as 80% in series [2] (10 mg/kg) and 80.2% in series [2] (listed as PF 1022, 10 mg/kg).

For the compound `CCCCCC[C@H]1OC(=O)[C@H](CC(C)C)N(C)C(=O)[C@@H](C)OC(=O)[C@H](CC(C)C)N(C)C(=O)[C@@H](CCCCCC)OC(=O)[C@H](CC(C)C)N(C)C(=O)[C@@H](C)OC(=O)[C@H](CC(C)C)N(C)C1=O` [Cyclo-(L-MeLeu-D-OctA-L-MeLeu-D-Lac)2], in series [1] (from H-MeLeu-dOctA-MeLeu-dLac-MeLeu-dOctA-MeLeu-dLac-OH, EDCI.HCl/HOBt/NMM/LiCl/NaCl/KCl/CsCl, 0.81 mM), the ring closure, isolated yield was found to be 92%.

On to `CCCC[C@H]1OC(=O)[C@H](CC(C)C)N(C)C(=O)[C@@H](Cc2ccccc2)OC(=O)[C@H](CC(C)C)N(C)C(=O)[C@@H](C)OC(=O)[C@H](CC(C)C)N(C)C(=O)[C@@H](Cc2ccccc2)OC(=O)[C@H](CC(C)C)N(C)C1=O`, for which, in series [1] (from H-MeLeu-dLac-MeLeu-dPhLac-MeLeu-dnorLEUA-MeLeu-dPhLac-OH, EDCI.HCl/HOBt/NMM/LiCl/NaCl/KCl/CsCl, 0.76 mM), the ring closure, isolated yield is 82%.

On to `CC(C)C[C@H]1C(=O)O[C@H](Cc2ccc(OC(C)(C)C)cc2)C(=O)N(C)[C@@H](CC(C)C)C(=O)O[C@H](C)C(=O)N(C)[C@@H](CC(C)C)C(=O)O[C@H](Cc2ccccc2)C(=O)N(C)[C@@H](CC(C)C)C(=O)O[C@H](C)C(=O)N1C` [PF1022-215, cyclo-(L-MeLeu-D-PhLac-L-MeLeu-D-Lac-L-MeLeu-D-TYRA(O-t-Bu)-L-MeLeu-D-Lac)], for which the “% Elimination” value in the series on fowl roundworms (single oral dose 1.0 mg/kg) is recorded as 37%; in the series on fowl roundworms (single oral dose 2.0 mg/kg) it was 98%. Moreover, in the series on Haemonchus contortus (0.25 mg/kg), the Degree of effects was found to be 3.

As for `CC(C)C[C@@H]1NC(=O)[C@@H](C)OC(=O)[C@H](CC(C)C)N(C)C(=O)[C@@H](Cc2ccccc2)OC(=O)[C@H](CC(C)C)NC(=O)[C@@H](C)OC(=O)[C@H](CC(C)C)N(C)C(=O)[C@@H](Cc2ccccc2)OC1=O` [PF1022-219, cyclo-(L-MeLeu-D-Lac-L-Leu-D-PhLac)2], in series [3], the Degree of effects was determined as 3. In addition, in series [2], the “Number of remaining worms (average value ± SD)” value was found to be 2084.5 and the “% Effectiveness” value was found to be 0%.

`CCCC[C@H]1OC(=O)[C@H](CC(C)C)N(C)C(=O)[C@@H](Cc2ccccc2)OC(=O)[C@H](CC(C)C)N(C)C(=O)[C@@H](CCCC)OC(=O)[C@H](CC(C)C)N(C)C(=O)[C@@H](Cc2ccccc2)OC(=O)[C@H](CC(C)C)N(C)C1=O` [Cyclo-(L-MeLeu-D-norLEUA-L-MeLeu-D-PhLac)2] gave a ring closure, isolated yield in series [1] (from H-MeLeu-dnorLEUA-MeLeu-dPhLac-MeLeu-dnorLEUA-MeLeu-dPhLac-OH, EDCI.HCl/HOBt/NMM/LiCl/NaCl/KCl/CsCl, 0.82 mM, 3 steps) of 35.8%.

These data come from patent US5747448A, “Derivatives of cyclodepsipeptide PF 1022” (Meiji Seika Kaisha, Ltd., priority 1993, dated 1998).
